Measurements reported in patent publication US5962524A, “Depigmenting composition” (Caster, priority 1997, dated 1999).

Key:
[1] = Oral toxicity in rats (LD50); conditions: rat, in vivo, administered orally to rats, read-out: 50% lethal dose (LD50)
Method: The evaluation of the toxicity of the active principle of the present invention, administered orally to rats, gives 50% lethal dose values (LD50) of greater than 2000 mg/kg. Diethyl acetone-α,α'-dioxalate is thus not classed as a risk product.

[2] = system: tyrosinase; test: Inhibition of the tyrosine-tyrosinase reaction, spectrophotometric assay of melanin (absorbance at 477 nm); format: biochemical
Method: This is a spectrophotometric assay (absorbance at 477 nm) of the melanin produced in vitro by tyrosinase from the tyrosine substrate. […] 2.0 ml of bis Tris buffer (0.1 M, pH 6.5) and 5.0 ml of tyrosine stock solution are added to 0 ml, 1.2 ml, 2.0 ml and 2.5 ml of tyrosinase solution and the mixtures are each completed with water to a total volume of 10.0 ml. These mixtures are incubated for 1 hour and 30 minutes at 37° C. on a water bath and are then rapidly cooled to 4° C. Measurement of the absorbance of the solutions at λ=477 nm relative to a solution free of tyrosinase makes it possible to plot a calibration curve characterized by the curve equation y=0.813×+1.27×10^-3 and by a correlation coefficient equal to 0.999. The following solutions are then prepared: Control solution (100% tyrosinase activity): Solution to be ascertained: These two solutions are incubated for 1 hour 30 minutes on a water bath at 37° C. The solutions are rapidly cooled to 4° C. and the absorbance at 477 nm is then read, taking a blank free of tyrosinase as reference.

[3] = system: tyrosinase in melanocytes of human skin explants; test: Depigmenting power in vitro on skin explants (histological evaluation of melanocyte coloration); format: cell-based; conditions: for tyrosinase activity: 15 hours at 37° C., 0.005 M L-DOPA
Method: The inhibitory activity of diethyl acetone-α,α'-dioxalate on tyrisonase in melanocytes was evaluated by a histological study on skin explants.
After thawing and fixing for 30 minutes in 10% (w/v) formaldehyde solution, human skin explants obtained from an abdominoplasty are incubated for 15 hours at 37° C. in the presence of 0.005 M of L-DOPA and of the test products.
The diethyl acetone-α,α'-dioxalate is used at concentrations of 0.5%, 1% and 2% (w/v) in a 10% (v/v) solution of DMSO in water.
Control explants incubated only in the presence of 0.005 M of L-DOPA are prepared in parallel.
For the histological examination, 4 μm thick slices are taken from explants included in paraffin and the slices are stained with cresyl violet.
Optical microscopy photographs in white light allow a visual evaluation of the coloration of the melanocytes reflecting the tyrosinase activity.

[4] = system: tyrosinase; test: Inhibition of the L-DOPA-tyrosinase reaction, revealed by thin layer chromatography; format: biochemical; conditions: 10 μl of a 1% solution in ethanol on silica gel plate; L-DOPA 1 M, tyrosinase 238 IU/ml
Method: 10 μl of a 1% solution of diethyl acetone-α,α'-dioxalate in ethanol (at 96%) is deposited onto G60 silica gel plates. The migration solvent is a butanol/water/acetic acid mixture (4/1/1, v/v/v) which is migrated to a height of 10 cm. After drying, an L-DOPA solution (1 M) is sprayed over the entire plate, followed by a tyrosinase solution (238 IU/ml). […] This white spot is due to the absence of tyrosinase activity converting the L-DOPA substrate into dopaquinone, the molecule which spontaneously converts into a brown pigment (brown background) in the presence of light.

[5] = system: tail pigmentation of black mice; test: Depigmenting power in vivo on the tails of black mice (lightness parameter L*); conditions: concentration ten times as great increases the efficacy by a factor of two
Method: L 908/1). Composition 1: gel containing 99.0% of liposomes containing a 0.5% dose of diethyl acetone-α,α'-dioxalate Composition 2: emulsion containing 10.0% of liposomes containing a 0.5% dose of diethyl acetone-α,α'-dioxalate Reference product: composition containing 2% hydroquinone Each composition is applied daily for 28 days to the tail of four black mice. For each mouse, the lightness parameter L* is measured on day D0, D15 and D28 using a chromameter.

| Structure (SMILES) | LD50 [1] | in vitro production of melanin by tyrosinase from L-tyrosine ([2]; 2.58% solution in alcohol) | Absorbance at 477 nm solution to be assayed, mean ([2]; mean of five tests, 2.0 ml of 2.58% solution in alcohol, 1 h 30 min at 37° C., control mean ≈1.16) | Absorbance at 477 nm solution to be assayed ([2]; single tests 1-5, 2.0 ml of 2.58% solution in alcohol, 1 h 30 min at 37° C., control solution 1.16-1.23) | tyrosinase activity ([3]; 0.5% (w/v) in 10% DMSO) | tyrosinase activity ([3]; 1.0% (w/v) in 10% DMSO) | tyrosinase activity ([3]; 2.0% (w/v) in 10% DMSO) | inhibition of the tyrosinase activity in skin explants ([3]; tested at 0.5%, 1.0% and 2%) | inhibition of the DOPA-tyrosinase reaction (white band on brown background) [4] | dose dependence of depigmenting efficacy [5] | tyrosinase activity ([3]; 1.1% (w/v) in 10% DMSO) |
| --- | --- | --- | --- | --- | --- | --- | --- | --- | --- | --- | --- |
| CCOC(=O)C(O)=CC(=O)C=C(O)C(=O)OCC [diethyl acetone-α,α'-dioxalate] | > 2000 mg/kg | effectively inhibits the in vitro production of melanin | ≈ 0 | ≈ 0 | 0 | 0 | 0 | totally inhibits the tyrosinase activity | effectively inhibits the DOPA-tyrosinase reaction | acts in a dose-dependent manner |  |
| Oc1ccc(O)cc1 [hydroquinone, reference compound] |  |  |  |  |  |  |  |  |  |  | 0 |
